Results as given in patent US20050112573A1, “Method of detecting toxic substance” (priority 2001, published 2005).

Tested on: yeast genes (level of expressed mRNA)
Assay: DNA chip analysis of expressed mRNA of yeast genes after 2 h culture with a toxic chemical substance
Type: cell-based, Saccharomyces cerevisiae S288C
Method: Yeast (Saccharomyces cerevtisiae S288C (α SUC2mal mel gap2 CUP1)) were cultured at 25° C. on YPD medium (yeast extract 1%, polypepton 2%, glucose 2%). One of toxic chemical substances was added to the cell at logarithmic growth phase, and the cell was further cultured for two hours. Cell was cultured without any chemical substance in the same condition, and was used as control. Concentrations of the chemical substances were defined to inhibit the growth of the yeast but not lead to death.
After the completion of cultivation, the culture was centrifuged to collect the cells. To the cells, sodium acetate buffer (50 mM sodium acetate, 10 mM EDTA, 1% SDS) was added, and the mixture was shaken at 65° C. for five minutes, followed by returning to room temperature, and obtaining the supernatant, which procedure was repeated two times. To the supernatant, ½ amount of a solution of phenol/chloroform was added, and the mixture was centrifuged to give a supernatant, which was added with an equal amount of chloroform, and the mixture was centrifuged to give a supernatant. To the supernatant, an equal amount of isopropanol containing 0.3 M sodium acetate was added, and the mixture was allowed to stand at room temperature for 30 minutes, after which the mixture was centrifuged to give a sediment of the whole RNAs. Seventy % ethanol was added to the sediment, and the mixture was again centrifuged to give a sediment, which was then dried and dissolved in water. mRNA was isolated from the whole RNAs as followings. In view of the fact that a poly A chain is attached to the 3′ terminus of mRNA, a polynucleotide having a poly T structure which was immobilized on the surface of latex beads was used to trap the mRNA, and then the mRNA was washed and eluted with spine column (Oligotex-dT30<Super>mRNA Purification Kit, Takara). Reverse transcription of the mRNA was conducted with a reverse transcriptase (Super Script II Reverse Transcriptase; catalogue No. 18064-014, GibcoBRL) using fluorescence-labeled nucleotides to give cDNAs that were introduced with Cy3-dUTP or Cy5-dUTP during the reverse transcription.
The labeled cDNAs were dissolved in TE buffer (10 mM Tris-HCl/1 mM EDTA, pH8.0), and the solution was dropped on the DNA chip containing the whole genes of yeast (DNA Chip Research Inc. Japan) so that the cDNAs were hybridized on the DNA chip at 65° C. for over 12 hours. The fluoresces intensity of the DNA chip was read with a scanner, and the ratio relative to the fluorescence intensity resulting from the absence of chemical substance was estimated as the following, which is shown in Tables 1 to 9: [formula]
In the Tables, “Intensity” indicated in the rightmost column is a value of the level of expressed mRNA of each gene in control cells as divided by the average level of the expressions of the whole genes.

Measured: The level of expressed mRNA in the presence of chemical substance/The level of expressed mRNA in the absence of chemical substance

O=[N+]([O-])c1cc[n+]([O-])c2ccccc12 [(5), 4-nitroquinolin-N-oxide]
0.8: yeast gene YEL066W | yeast gene YIL140W
1.3: yeast gene YBL005W-A | yeast gene YDR104C | yeast gene YER107C | yeast gene YGR257C | yeast gene YHR139C | yeast gene YHR142W | yeast gene YJL116C | yeast gene YJR086W
1.2: yeast gene YCL027W | yeast gene YCR004C | yeast gene YCR071C | yeast gene YDR084C | yeast gene YFL043C | yeast gene YGR136W | yeast gene YGR213C | yeast gene YJL073W
1.8: yeast gene YDL008W
0.6: yeast gene YIL123W
0.7: yeast gene YBL078C | yeast gene YDR388W | yeast gene YDR510W | yeast gene YEL042W | yeast gene YGR189C
1.6: yeast gene YBL041W | yeast gene YDR432W
0.9: yeast gene YDL238C | yeast gene YDR085C | yeast gene YDR315C | yeast gene YKL008C
1.0: yeast gene YAR010C | yeast gene YDR259C | yeast gene YDR481C | yeast gene YGL158W | yeast gene YGL229C
0.5: yeast gene YCL020W
1.7: yeast gene YDR055W | yeast gene YER130C | yeast gene YFL028C
1.5: yeast gene YER039C | yeast gene YHR004C | yeast gene YHR071W
1.4: yeast gene YDR115W | yeast gene YDR358W
1.1: yeast gene YBL043W | yeast gene YBR214W | yeast gene YCR088W | yeast gene YJL089W | yeast gene YJR004C
